Source: patent US12714698B2, “Compositions and methods for treating or preventing dermal disorders” (Drexel University, priority 2015, dated 2026)
Entries after “also recorded” stand apart in the source; their conditions may differ.

Experiments:
[1] = system: human cardiac fibroblasts; experiment: Mitochondrial respiration, Seahorse XF24 Bioanalyzer; assay type: cell-based
Protocol: Cell culture experiments utilizing NRTIs were of the following design. Cultures of either human lung or cardiac fibroblasts were cultivated according to standard culture protocols for these cells (Cristofalo, et al., Journal of Tissue Culture Methods 1980, 6:117-121). Parallel sets of cultures were maintained in normal growth media or in normal growth media with the addition of 1 nM rapamycin. Cultures were maintained with 1 nM rapamycin (Enzo Biologicals) for two weeks before exposure to NRTIs. […] Mitochondrial measurements, bioanalyzer measurements, immunoblotting for protein expression and phosphorylation status, and assays for senescence were performed at the end of this 7-day period. Mitochondrial function was measured using the XF cell mito stress test kit on a Seahorse XF24 Bioanalyzer (Seahorse Bioscience). Cells were seeded at a density of 15,000 cells per well in an XF24 microplate. Following acquisition, results were normalized based upon 10^6 cells counted using a Guava EasyCyte Mini (Millipore), where applicable. […] Respiration rates and proton leak were assessed as outlined in published methods (Hill, et al., Biological chemistry 2012, 393:1485-1512). Mitochondrial respiration was calculated based upon oxygen consumption rate measurements in triplicates from cells seeded in at least quadruplicates. Basal respiration represents the initial oxygen consumption rate measurements and maximal respiration represents the oxygen consumption rate measurements following FCCP addition. ATP-linked respiration is represented as the oligomycin-sensitive oxygen change to basal oxygen consumption rate. Proton leak represents the oligmycin insensitive oxygen consumption rate. […] All data was normalized to cell number by counting cells in each well at the completion of the mitochondrial assessments.

[2] = system: Lung fibroblasts; experiment: Senescence markers in lung fibroblasts exposed to NRTIs; assay type: cell-based, human
Protocol: (§1) Cell culture experiments utilizing NRTIs were of the following design. Cultures of either human lung or cardiac fibroblasts were cultivated according to standard culture protocols for these cells (Cristofalo, et al., Journal of Tissue Culture Methods 1980, 6:117-121). Parallel sets of cultures were maintained in normal growth media or in normal growth media with the addition of 1 nM rapamycin. Cultures were maintained with 1 nM rapamycin (Enzo Biologicals) for two weeks before exposure to NRTIs. Cell cultures were exposed to NRTIs at indicated concentrations in individual experiments (generally 10-20 μg/ml) for 7 days, with a change of media and fresh NRTIs at day 4. Mitochondrial measurements, bioanalyzer measurements, immunoblotting for protein expression and phosphorylation status, and assays for senescence were performed at the end of this 7-day period.
Cell culture reagents were from Cellgro, unless indicated. WI-38 fetal-lung primary human fibroblasts or human cardiac fibroblasts were grown in MEM supplemented with 10% fetal bovine serum, 1% L-glutamine, MEM vitamins, and MEM non-essential amino acids. Cells were maintained in a 37° C. in 5% CO2 incubator. For treatment studies, cells were treated with 1 nM rapamycin (Enzo Biologicals) for two weeks before treatment with NRTIs. […]

[3] = system: human fibroblasts; experiment: Long-term culture of human fibroblasts with or without rapamycin (lifespan, organization, p21 and IL-6 expression); assay type: cell-based
Protocol: FIG. 13 is a graph illustrating the finding that rapamycin treatment provides lifespan extension in human fibroblasts. Human fibroblast cells were growth in culture medium with or without rapamycin (1 nM). Cultures were split every 7 days and reseeded at identical cell number/cm^2 each week. The lifespan of normal human fibroblasts is counted by the number of times that the cells double.
FIG. 14 illustrates the finding that rapamycin preserves cell organization during aging of human fibroblasts. […] The ability to organize is a critical element of normal fibroblast function and contributes to tissue integrity in normal tissue. The disorganization which occurs with age contributes to functional decline.
FIG. 17 is a bar graph illustrating the finding that rapamycin prevents the expression of genes that cause senescence. The p21 gene makes a protein that is critical for senescence of human fibroblasts.
FIG. 18 is a bar graph illustrating the finding that rapamycin prevents the expression of genes related to inflammation. The IL-6 gene makes a protein that activates the immune system to recruit immune cells into an area of tissue damage.
as §1

[4] = system: human fibroblasts; experiment: Ethidium bromide mitochondrial stress in human fibroblasts
Description: Human fibroblasts were exposed to ethidium bromide for 7 days and cell viability measured at that time.

[5] = system: human cardiac fibroblasts; experiment: Mitochondrial membrane potential, mass, superoxide and total ROS by flow cytometry; assay type: cell-based; details: cultures grown with 1 nM rapamycin, NRTIs 7 days
Protocol: as §1
Cell culture reagents were from Cellgro, unless indicated. WI-38 fetal-lung primary human fibroblasts or human cardiac fibroblasts were grown in MEM supplemented with 10% fetal bovine serum, 1% L-glutamine, MEM vitamins, and MEM non-essential amino acids. Cells were maintained in a 37° C. in 5% CO2 incubator. For treatment studies, cells were treated with 1 nM rapamycin (Enzo Biologicals) for two weeks before treatment with NRTIs. Cells were maintained by trypsinization and reseeding at a cell density of 1×10^4/cm^2 every 7 to 10 days. Emtricitabine (FTC) and tenofovir disoproxil fumarate (TDF) were kindly provided by the NIH AIDS Research & Reference Reagent program. During the 7-day exposure to the NRTIs, the pharmacologic inhibitors PD98059 (10 μM, Santa Cruz Biotechnologies), BI-D1870, GW5074, and SB203580 (10 μM, Enzo Biologicals) were added to the culture medium either during the final 48 hours or for the final 2 hours depending upon the experiment. During the 7-day exposure to NRTIs, Trolox (500 μM) and N-acetylcysteine (100 μM, Acros Organics) were added every other day. Mito-Q (20 nM) and TPP (20 nM) were kindly provided by Dr. Brett Kaufmann at the University of Pennsylvania School of Veterinary Medicine. Vector and mt-catalase adenoviruses (MOI's 25, 50, and 75) were purchased from Gene Transfer Vector Core from the University of Iowa.
Mitochondrial membrane potential was detected by incubating cells with 25 nM TMRE (Molecular Probes). Mitochondrial mass was evaluated by incubating the cells with 100 nM Mitotracker Green FM (Molecular Probes). Mitochondrial superoxide anion levels were detected by incubating the cells with 5 μM MitoSox Red (Molecular Probes). Total cellular levels of ROS were detected by incubating the cells with 10 μM 2′,7′-dichlorofluoroscein diacetate (DCF-DA; Sigma-Aldrich) in 1% fetal bovine serumsupplemented MEM and washing twice with Krebs Ringer phosphate glucose buffer (145 mM NaCl, 5.7 mM NaH2PO4, 4.86 mM KCL, 0.54 mM CaCl2), 1.22 mM MgSO4, and 5.5 mM glucose) following the incubation period. For the aforementioned assessments, incubation was performed at 37° C. in 5% CO2 for 30 minutes and cells were harvested in 2.5% trypsin-EDTA with serum-containing medium. Cells were immediately analyzed with a Guava EasyCyte Mini employing the Guava Express Plus program (Guava Technologies).

[6] = cells grown in the presence of rapamycin

## CO[C@H]1C[C@@H]2CC[C@@H](C)[C@@](O)(O2)C(=O)C(=O)N2CCCC[C@H]2C(=O)O[C@H]([C@H](C)C[C@@H]2CC[C@@H](O)[C@H](OC)C2)CC(=O)[C@H](C)/C=C(\C)[C@@H](O)[C@@H](OC)C(=O)[C@H](C)C[C@H](C)/C=C/C=C/C=C/1C [rapamycin]
[1]; rapamycin-treated (1 nM) vs standard culture
  basal respiration: significantly lower
[1]; rapamycin-treated cells (1 nM)
  basal respiration when exposed to NRTIs: did not exhibit an increase
  maximal respiration when exposed to NRTIs: did not exhibit an increase
  proton leak following exposure to NRTIs: did not exhibit an increase
[1]; rapamycin-treated cultures (1 nM)
  ATP-linked respiration: reduced
[2]
  effect of rapamycin treatment on NRTI-induced senescence markers: protection
[3]; [6]
  IL-6 expression as cells age: do not produce IL-6
  p21 expression as cells age: do not produce p21
[3]; low doses of rapamycin
  cell organization during aging: maintained an orderly growth pattern
[3]; rapamycin 1 nM in culture medium
  replicative lifespan (number of times that the cells double): extend replicative lifespan; also recorded: well beyond the normal lifespan
[4]; ethidium bromide for 7 days
  survival of human fibroblasts following mitochondrial stress: increases the survival
[4]; rapamycin treated cells
  mitochondrial network following exposure to EthBr: able to maintain their mitochondrial network
[4]; rapamycin treated cells, no toxin
  mitochondrial network: normal mitochondrial network
[5]
  mitochondrial ROS following exposure to NRTIs: did not exhibit the same level of increase
  mitochondrial membrane potential following exposure to NRTIs: did not exhibit the same level of increase
  total cellular ROS following exposure to NRTIs: did not exhibit the same level of increase
